Common to all, as to type: cell-based
The target in one experiment is T1, human TLR7 (Homo sapiens, UniProt Q9NYK1).
T1 construct: host or cells: HEK-Blue cells
T1 sequence (Q9NYK1 27-1049): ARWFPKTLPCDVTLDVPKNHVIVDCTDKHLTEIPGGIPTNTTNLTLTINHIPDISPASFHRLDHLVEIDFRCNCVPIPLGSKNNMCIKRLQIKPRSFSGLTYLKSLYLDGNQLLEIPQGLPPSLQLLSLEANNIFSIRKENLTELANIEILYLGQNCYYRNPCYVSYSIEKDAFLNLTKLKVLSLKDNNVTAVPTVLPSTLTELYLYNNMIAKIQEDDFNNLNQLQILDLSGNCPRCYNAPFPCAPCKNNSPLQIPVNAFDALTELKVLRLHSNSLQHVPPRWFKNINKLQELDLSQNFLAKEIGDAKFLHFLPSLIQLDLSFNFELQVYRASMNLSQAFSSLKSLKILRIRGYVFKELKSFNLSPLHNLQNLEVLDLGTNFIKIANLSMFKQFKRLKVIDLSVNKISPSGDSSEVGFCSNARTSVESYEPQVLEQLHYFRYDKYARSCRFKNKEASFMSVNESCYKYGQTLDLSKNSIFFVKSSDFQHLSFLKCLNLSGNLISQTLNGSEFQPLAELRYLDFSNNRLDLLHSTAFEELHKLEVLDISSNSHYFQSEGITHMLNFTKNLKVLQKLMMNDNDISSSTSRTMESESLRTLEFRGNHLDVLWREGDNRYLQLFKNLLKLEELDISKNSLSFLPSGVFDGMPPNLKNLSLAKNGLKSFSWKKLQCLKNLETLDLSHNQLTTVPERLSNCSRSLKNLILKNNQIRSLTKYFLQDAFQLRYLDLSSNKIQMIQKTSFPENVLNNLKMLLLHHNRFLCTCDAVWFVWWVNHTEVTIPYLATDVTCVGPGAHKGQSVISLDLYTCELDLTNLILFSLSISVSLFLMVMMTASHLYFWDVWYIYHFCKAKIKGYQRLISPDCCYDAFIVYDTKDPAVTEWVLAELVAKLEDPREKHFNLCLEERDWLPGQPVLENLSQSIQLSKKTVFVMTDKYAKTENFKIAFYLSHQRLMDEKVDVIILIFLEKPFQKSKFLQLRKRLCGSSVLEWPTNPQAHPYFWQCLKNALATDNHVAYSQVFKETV
Kind of experiment: TLR7 inhibition reporter assay (HEK-Blue SEAP). Particulars: HEK-Blue cells overexpressing human TLR7, stimulated with gardiquimod 7.5 μM, 22 hour incubation. The method in brief: (§1)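 Percent inhibition reflects SEAP reduction after 22 h at 37° C, relative to agonist-plus-DMSO and known-inhibitor controls. Compounds (0.05 nM to 50 μM) were added 30 min before agonist: TLR9 cells received ODN2006 5 nM, TLR8 cells R848 15.9 μM, TLR7 cells gardiquimod 7.5 μM; human receptor-expressing HEK-Blue reporter lines.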
For orientation: Reporter assays use an easily measured gene product as a stand-in for the process of interest.

The target in the next experiment is T2, human TLR8 (Homo sapiens, UniProt Q9NR97).
T2 construct: host or cells: HEK-Blue cells
T2 sequence (Q9NR97 27-1041): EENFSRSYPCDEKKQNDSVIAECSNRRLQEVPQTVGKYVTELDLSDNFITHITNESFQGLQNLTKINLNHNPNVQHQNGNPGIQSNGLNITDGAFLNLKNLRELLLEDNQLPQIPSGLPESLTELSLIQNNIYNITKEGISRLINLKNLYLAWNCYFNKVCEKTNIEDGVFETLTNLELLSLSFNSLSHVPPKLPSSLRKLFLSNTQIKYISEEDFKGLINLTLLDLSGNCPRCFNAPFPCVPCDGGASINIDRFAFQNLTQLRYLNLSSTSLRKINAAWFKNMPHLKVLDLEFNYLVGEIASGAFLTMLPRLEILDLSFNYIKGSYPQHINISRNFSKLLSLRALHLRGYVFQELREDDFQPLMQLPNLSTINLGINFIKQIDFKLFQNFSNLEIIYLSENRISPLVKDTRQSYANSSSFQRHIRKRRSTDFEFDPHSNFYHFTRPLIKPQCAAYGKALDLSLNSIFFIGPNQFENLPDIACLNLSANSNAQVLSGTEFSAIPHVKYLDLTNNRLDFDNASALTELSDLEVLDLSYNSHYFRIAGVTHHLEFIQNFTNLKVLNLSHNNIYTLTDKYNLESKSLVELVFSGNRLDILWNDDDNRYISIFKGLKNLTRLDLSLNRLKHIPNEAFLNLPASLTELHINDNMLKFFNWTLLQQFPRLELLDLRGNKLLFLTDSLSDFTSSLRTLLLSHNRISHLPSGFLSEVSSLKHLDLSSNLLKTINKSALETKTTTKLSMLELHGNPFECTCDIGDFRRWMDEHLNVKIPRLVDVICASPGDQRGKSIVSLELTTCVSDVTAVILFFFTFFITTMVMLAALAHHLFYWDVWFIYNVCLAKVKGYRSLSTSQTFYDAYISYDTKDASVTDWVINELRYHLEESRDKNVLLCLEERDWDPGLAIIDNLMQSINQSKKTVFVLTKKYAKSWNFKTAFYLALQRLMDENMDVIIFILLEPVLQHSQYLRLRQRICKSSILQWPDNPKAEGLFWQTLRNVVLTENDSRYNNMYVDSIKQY
Kind of experiment: TLR8 inhibition reporter assay (HEK-Blue SEAP). Particulars: HEK-Blue cells overexpressing human TLR8, stimulated with R848 15.9 μM, 22 hour incubation. The method in brief:
as §1

Another experiment concerns the target T3, human TLR9 (Homo sapiens, UniProt Q9NR96).
T3 construct: host or cells: HEK-Blue cells
T3 sequence (Q9NR96 26-1032): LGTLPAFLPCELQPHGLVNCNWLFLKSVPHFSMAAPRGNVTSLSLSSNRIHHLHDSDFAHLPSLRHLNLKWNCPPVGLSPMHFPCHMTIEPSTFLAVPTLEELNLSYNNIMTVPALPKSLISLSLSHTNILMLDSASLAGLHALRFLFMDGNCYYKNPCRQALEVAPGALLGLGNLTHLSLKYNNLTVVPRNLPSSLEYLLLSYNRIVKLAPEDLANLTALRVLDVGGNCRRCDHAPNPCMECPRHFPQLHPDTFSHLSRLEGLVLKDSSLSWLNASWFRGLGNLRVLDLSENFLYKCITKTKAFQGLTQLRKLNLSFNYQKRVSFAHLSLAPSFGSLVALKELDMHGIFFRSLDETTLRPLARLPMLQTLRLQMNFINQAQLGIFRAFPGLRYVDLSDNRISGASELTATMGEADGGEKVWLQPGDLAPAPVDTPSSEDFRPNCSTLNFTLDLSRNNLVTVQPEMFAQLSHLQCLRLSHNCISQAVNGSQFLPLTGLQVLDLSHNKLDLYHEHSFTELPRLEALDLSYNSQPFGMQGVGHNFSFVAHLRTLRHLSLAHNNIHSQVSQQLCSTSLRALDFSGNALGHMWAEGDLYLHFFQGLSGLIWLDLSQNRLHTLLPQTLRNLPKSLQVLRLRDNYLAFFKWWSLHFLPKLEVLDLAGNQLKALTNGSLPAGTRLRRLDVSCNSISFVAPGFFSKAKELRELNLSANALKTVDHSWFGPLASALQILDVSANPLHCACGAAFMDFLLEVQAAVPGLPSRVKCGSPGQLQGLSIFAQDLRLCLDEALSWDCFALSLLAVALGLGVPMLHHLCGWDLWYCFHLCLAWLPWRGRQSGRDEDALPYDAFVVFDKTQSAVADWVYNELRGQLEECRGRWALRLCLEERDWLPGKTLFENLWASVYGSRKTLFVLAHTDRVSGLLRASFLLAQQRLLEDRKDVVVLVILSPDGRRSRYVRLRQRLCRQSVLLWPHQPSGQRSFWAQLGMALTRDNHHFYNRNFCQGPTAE
The experiment in a line: TLR9 inhibition reporter assay (HEK-Blue SEAP). Particulars: HEK-Blue cells overexpressing human TLR9, stimulated with ODN2006 5 nM, 22 hour incubation. The method in brief:
as §1

With `Cc1cc(-c2cc3[nH]nc(C4CCC(N5CC6(CCOC6)C5)CC4)c3cc2C(C)C)cn2ncnc12` (stereo not drawn) [Example 158, 2-(4-(5-isopropyl-6-(8-methyl-[1,2,4]triazolo[1,5-a]pyridin-6-yl)-1H-indazol-3-yl)cyclohexyl)-6-oxa-2-azaspiro[3.4]octane], the IC50 (usually the concentration that gives 50% inhibition) was 0.5 nM on human TLR7, 0.2 nM at human TLR8 and 9850 nM on human TLR9.

As for `Cc1cc(-c2cc3[nH]nc(C4CCC(N5CCC(F)C5)CC4)c3cc2C(C)C)cn2ncnc12` (stereo not drawn) [Example 163, 6-(3-(4-(3-fluoropyrrolidin-1-yl)cyclohexyl)-5-isopropyl-1H-indazol-6-yl)-8-methyl-[1,2,4] triazolo[1,5-a]pyridine], the IC50 is 0.9 nM at human TLR7, 0.1 nM on human TLR8 and 6230 nM against human TLR9.

In the case of `Cc1cc(-c2cc3[nH]nc(C4CCC(N5CCC(F)C5)CC4)c3cc2C(C)C)cn2ncnc12` (stereo not drawn) [Example 164, 6-(3-(4-(3-fluoropyrrolidin-1-yl)cyclohexyl)-5-isopropyl-1H-indazol-6-yl)-8-methyl-[1,2,4] triazolo[1,5-a]pyridine], the IC50 against human TLR7 came to 1.5 nM; on human TLR8 it was 0.1 nM; against human TLR9, 6450 nM.

For the compound `Cc1cc2c(OC3CCNCC3)n[nH]c2cc1-c1cc(C)c2ncnn2c1` [Example 167, 8-methyl-6-(5-methyl-3-(piperidin-4-yloxy)-1H-indazol-6-yl)-[1,2,4]triazolo[1,5-a]pyridine], the IC50 was 5.4 nM on human TLR7, 0.2 nM against human TLR8 and 631 nM on human TLR9.

In the case of `Cc1cc2c(OC3CCN(C(=O)CN(C)C)CC3)n[nH]c2cc1-c1cc(C)c2ncnn2c1` [Example 170, 2-(dimethylamino)-1-(4-((5-methyl-6-(8-methyl-[1,2,4]triazolo[1,5-a]pyridin-6-yl)-1H-indazol-3-yl)oxy)piperidin-1-yl)ethan-1-one], the figures for the IC50 at human TLR7, against human TLR8 and against human TLR9 were 13.3 nM, 3 nM and 5730 nM, respectively.

For the compound `Cc1cc2c(OC3CCN(C)CC3)n[nH]c2cc1-c1cc(C)c2ncnn2c1` [Example 171, 8-methyl-6-(5-methyl-3-((1-methylpiperidin-4-yl)oxy)-1H-indazol-6-yl)-[1,2,4]triazolo[1,5-a] pyridine], the IC50 on human TLR7 is 8.2 nM; at human TLR8, 0.1 nM; on human TLR9, 2770 nM.

For the compound `Cc1cc2c(OCCN(C)C)n[nH]c2cc1-c1cc(C)c2ncnn2c1` [Example 172, N,N-dimethyl-2-((5-methyl-6-(8-methyl-[1,2,4]triazolo[1,5-a]pyridin-6-yl)-1H-indazol-3-yl)oxy)ethan-1-amine], the values for the IC50 against human TLR7, against human TLR8 and at human TLR9 were 37.2 nM, 1.4 nM and 5070 nM, respectively.

With `Cc1cc(-c2cc(C)c3ncnn3c2)cc2[nH]nc(OCCN(C)C)c12` [Example 173, N,N-dimethyl-2-((4-methyl-6-(8-methyl-[1,2,4]triazolo[1,5-a]pyridin-6-yl)-1H-indazol-3-yl)oxy)ethan-1-amine], the IC50 came out at 18.9 nM on human TLR7, 8 nM on human TLR8 and 1850 nM against human TLR9.

For `Cc1cc(-c2cc(C)c3ncnn3c2)cc2[nH]nc(OC3CCNCC3)c12` [Example 174, 8-methyl-6-(4-methyl-3-(piperidin-4-yloxy)-1H-indazol-6-yl)-[1,2,4]triazolo[1,5-a]pyridine], the IC50 on human TLR7 was 1.8 nM; against human TLR8 it was 1.4 nM; at human TLR9, 438 nM.

Turning to `Cc1cc(-c2cc(C)c3ncnn3c2)cc2[nH]nc(OC3CCN(C(=O)CN(C)C)CC3)c12` [Example 175, 2-(dimethylamino)-1-(4-((4-methyl-6-(8-methyl-[1,2,4]triazolo[1,5-a]pyridin-6-yl)-1H-indazol-3-yl)oxy)piperidin-1-yl)ethan-1-one], the IC50 worked out at 5.1 nM against human TLR7, 10.6 nM at human TLR8 and 1630 nM on human TLR9.

As to `Cc1cc(-c2cc(C)c3ncnn3c2)cc2[nH]nc(OC3CCN(CC(=O)N(C)C)CC3)c12` [Example 176, N,N-dimethyl-2-(4-((4-methyl-6-(8-methyl-[1,2,4]triazolo[1,5-a]pyridin-6-yl)-1H-indazol-3-yl)oxy)piperidin-1-yl)acetamide], the IC50 on human TLR7 was 12.5 nM; at human TLR8, 3.8 nM; at human TLR9, 4920 nM.

For the compound `Cc1cc(-c2cc(C)c3ncnn3c2)cc2[nH]nc(OC3CCN(C)CC3)c12` [Example 177, 8-methyl-6-(4-methyl-3-((1-methylpiperidin-4-yl)oxy)-1H-indazol-6-yl)-[1,2,4]triazolo[1,5-a]pyridine], the IC50 at human TLR7 was 2.7 nM; at human TLR8 it was 0.5 nM; on human TLR9, 928 nM.

In the case of `Cc1cc(-c2cc(C)c3ncnn3c2)cc2[nH]nc(OC3CCN(C4CCOCC4)CC3)c12` [Example 178, 8-methyl-6-(4-methyl-3-((1-(tetrahydro-2H-pyran-4-yl)piperidin-4-yl)oxy)-1H-indazol-6-yl)-[1,2,4]triazolo[1,5-a]pyridine], the IC50 was determined as 6.1 nM on human TLR7, 0.5 nM against human TLR8 and 1620 nM at human TLR9.
